Patent US11014929B2, “Pyrazolopyrimidine compounds and uses thereof” (Incyte Corporation, priority 2016, dated 2021)
pKi: −log10 of the molar value.

Target: HPK1 (Homo sapiens (Human), UniProt Q92918)
Experiment: HPK1 Kinase Binding Assay
Settings: LanthaScreen tracer 222 binding, active HPK1, one hour incubation at 25° C.
Experimental: A stock solution of 1 mM test compound was prepared in DMSO. The compound plate was prepared by 3-fold and 11-point serial dilutions. 0.1 μL of the compound in DMSO was transferred from the compound plate to the white 384 well polystyrene plates. The assay buffer contained 50 mM HEPES, pH 7.5, 0.01% Tween-20, 5 mM MgCl2, 0.01% BSA, and 5 mM DTT. 5 μl of 4 nM active HPK1 (SignalChem M23-11G) prepared in the buffer was added to the plate. The enzyme concentration given was based on the given stock concentration reported by the vender. 5 μl of 18 nM tracer 222 (ThermoFisher PV6121) and 4 nM LanthaScreen Eu-Anti GST antibody (ThermoFisher PV5595) were added. After one hour incubation at 25° C., the plates were read on a PHERAstar FS plate reader (BMG Labtech). Ki values were determined.

Chain of HPK1 (Q92918 1-346): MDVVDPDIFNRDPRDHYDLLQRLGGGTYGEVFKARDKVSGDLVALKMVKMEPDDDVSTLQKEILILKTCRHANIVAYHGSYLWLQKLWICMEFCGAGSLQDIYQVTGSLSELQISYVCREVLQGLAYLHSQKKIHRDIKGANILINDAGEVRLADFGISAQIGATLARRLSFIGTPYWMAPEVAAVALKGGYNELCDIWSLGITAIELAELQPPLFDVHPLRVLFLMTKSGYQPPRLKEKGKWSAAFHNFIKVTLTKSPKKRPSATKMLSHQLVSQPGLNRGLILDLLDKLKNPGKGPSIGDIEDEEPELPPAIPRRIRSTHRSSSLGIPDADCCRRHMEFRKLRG

SMILES	pKi
COc1cccc(F)c1-c1ncc2[nH]nc(-c3ccc(CN)cc3)c2n1 [Example 41, (4-(5-(2-Fluoro-6-methoxyphenyl)-1H-pyrazolo[4,3-d]pyrimidin-3-yl)phenyl)methanamine]	≥ 7.00
COc1cccc(F)c1-c1ncc2[nH]nc(-c3ccc(C(C)(C)C#N)cc3)c2n1 [Example 42, 2-(4-(5-(2-Fluoro-6-methoxyphenyl)-1H-pyrazolo[4,3-d]pyrimidin-3-yl)phenyl)-2-methylpropanenitrile]	≥ 7.00
COc1cccc(F)c1-c1ncc2[nH]nc(-c3ccc(C4CCOCC4)cc3)c2n1 [Example 43, 5-(2-Fluoro-6-methoxyphenyl)-3-(4-(tetrahydro-2H-pyran-4-yl)phenyl)-1H-pyrazolo[4,3-d]pyrimidine]	≥ 7.00
COc1cccc(F)c1-c1ncc2[nH]nc(-c3cnn(-c4ccccc4)c3)c2n1 [Example 48, 5-(2-Fluoro-6-methoxyphenyl)-3-(1-phenyl-1H-pyrazol-4-yl)-1H-pyrazolo[4,3-d]pyrimidine]	≥ 7.00
COc1cccc(F)c1-c1ncc2[nH]nc(-c3ccn(C)c(=O)c3)c2n1 [Example 49, 4-(5-(2-Fluoro-6-methoxyphenyl)-1H-pyrazolo[4,3-d]pyrimidin-3-yl)-1-methylpyridin-2(1H)-one]	≥ 7.00
COc1cccc(F)c1-c1ncc2[nH]nc(-c3ccnc(N4CCNCC4)c3)c2n1 [Example 50, 5-(2-Fluoro-6-methoxyphenyl)-3-(2-(piperazin-1-yl)pyridin-4-yl)-1H-pyrazolo[4,3-d]pyrimidine]	≥ 7.00
COc1cccc(F)c1-c1ncc2[nH]nc(-c3ccc(N4CCNCC4)nc3)c2n1 [Example 52, 5-(2-Fluoro-6-methoxyphenyl)-3-(6-(piperazin-1-yl)pyridin-3-yl)-1H-pyrazolo[4,3-d]pyrimidine]	≥ 7.00

Continued, values first:

pKi	SMILES
≥ 7.00	COc1cccc(F)c1-c1ncc2[nH]nc(-c3ccc(C4CC4)cc3)c2n1 [Example 39, 3-(4-Cyclopropylphenyl)-5-(2-fluoro-6-methoxyphenyl)-1H-pyrazolo[4,3-d]pyrimidine]
≥ 7.00	COc1cccc(F)c1-c1ncc2[nH]nc(-c3ccc(N4CCCCC4)cc3)c2n1 [Example 40, 5-(2-Fluoro-6-methoxyphenyl)-3-(4-(piperidin-1-yl)phenyl)-1H-pyrazolo[4,3-d]pyrimidine]
≥ 7.00	CN1CCN(c2ccc(-c3n[nH]c4cnc(-c5cccc(F)c5F)nc34)cc2)CC1 [Example 44, 5-(2,3-Difluorophenyl)-3-(4-(4-methylpiperazin-1-yl)phenyl)-1H-pyrazolo[4,3-d]pyrimidine]
≥ 7.00	COc1ccc(F)c(F)c1-c1ncc2[nH]nc(-c3ccc(N4CCN(C)CC4)cc3)c2n1 [Example 45, 5-(2,3-Difluoro-6-methoxyphenyl)-3-(4-(4-methylpiperazin-1-yl)phenyl)-1H-pyrazolo[4,3-d]pyrimidine]
≥ 7.00	CN1CCN(c2ccc(-c3n[nH]c4cnc(-c5cccc(C(N)=O)c5F)nc34)cc2)CC1 [Example 46, 2-Fluoro-3-(3-(4-(4-methylpiperazin-1-yl)phenyl)-1H-pyrazolo[4,3-d]pyrimidin-5-yl)benzamide]
6.30 to 7.00	CNC(=O)c1cccc(-c2ncc3[nH]nc(-c4ccc(N5CCN(C)CC5)cc4)c3n2)c1F [Example 47, 2-Fluoro-N-methyl-3-(3-(4-(4-methylpiperazin-1-yl)phenyl)-1H-pyrazolo[4,3-d]pyrimidin-5-yl)benzamide]
≥ 7.00	COc1cccc(F)c1-c1ncc2[nH]nc(-c3ccnc(N4CCN(C)CC4)c3)c2n1 [Example 51, 5-(2-Fluoro-6-methoxyphenyl)-3-(2-(4-methylpiperazin-1-yl)pyridin-4-yl)-1H-pyrazolo[4,3-d]pyrimidine]
≥ 7.00	COc1cccc(F)c1-c1ncc2[nH]nc(-c3ccc(N4CCOCC4)nc3)c2n1 [Example 53, 4-(5-(5-(2-Fluoro-6-methoxyphenyl)-1H-pyrazolo[4,3-d]pyrimidin-3-yl)pyridin-2-yl)morpholine]
